In US9486434B2, “Method for delivery and use of isothiocyanates for prophylaxis and/or therapy of bladder cancer” (Health Research Inc., priority 2010, dated 2016):
* marks the point of attachment. Cbz = O=C(OCc1ccccc1)*; CH2F = FC*

Assays:
[1] = test system: orthotopic AY-27 bladder tumor; assay: Orthotopic rat bladder cancer model; type: in vivo, rat (female F344); details: sinigrin
Description: FIG. 6. […] Female F344 rats were inoculated intravesically with bladder cancer AY-27 cells to initiate development of orthotopic bladder tumor. Oral administration of AITC at 0, 10, 25, 50 and 300 micromols/kg once daily was started 1 day after AY-27 cell inoculation and ended 3 weeks later. The number of rats per group varied from 6 to 33; some of the data, particularly the control group (n=33) and the group treated with the lowest dose of AITC (n=23), were pooled from several experiments. A. The initial and final body weights. B. The weights of bladder tumors. […] C. Percentage of bladders where the tumor invaded the muscle tissue. D. H/E staining of the normal rat bladder wall (D1), a superficial rat bladder tumor (D2), and a rat bladder tumor that invaded the muscle layer (D3).
FIG. 8. […] Female F344 rats were inoculated with AY-27 cells intravesically via a urethra catheter to initiate development of orthotopic bladder cancer. Oral administration of MSP-1 of vehicle (water) once daily was started 1 day after cancer cell inoculation and ended 3 weeks later. The number of rats per group varied from 11-29. A. Initial (□) and final (▪) body weights. […] Each value in A and B is mean±SEM. C. Percentage of bladder where the tumor invaded the muscle tissue. D. The effects of MSP-1 on selected anticancer targets in UM-UC-3 cells (in vitro), AY-27 cells (in vitro) and AY-27 tumors (in vivo). […] The bladder tumors were removed from rats treated with MSP-1 at the sinigrin doses of 9 or 90 micromols/kg once daily for 3 weeks, started 1 day after cancer cell inoculation. Cell lysates and tumor homogenates were analyzed by Western blotting, using GAPDH as a loading control.
FIG. 9. […] Female F344 rats were inoculated with bladder cancer AY-27 cells to initiate development of orthotopic bladder tumor. Oral administration of the powder (sinigrin and glucoraphanin: each at 10 micromols/kg) once daily was started 1 day after AY-27 cell inoculation and ended 3 weeks later. The number of rats per group was 9-10. Each value is mean±SE.
FIG. 12. […] Bladder cancer was initiated in female F344 rats by orthotopic inoculation of bladder cancer AY-27 cells. Oral administration of NAC-AITC at 10 μmmol/kg body wt once daily was started 1 day after cancer cell inoculation and ended 3 weeks later. There were 23 rats in the control group and 15 rats in the treatment group. (A) The initial (open bars) and final (closed bars) body weight. (B) Bladder tumor weight. Each value is a mean±SE. (C) Percentage of bladders where the tumor invaded the muscle tissue.
AITC was evaluated in an orthotopic rat bladder cancer model. […] Daily oral administration of AITC was initiated one day after instillation of AY-27 cells and continued for 3 weeks. AITC was evaluated at 4 dose levels: 10, 25, 50 and 300 micromols/kg. […] FIG. 6D depicts representative images of normal rat bladder wall (D1), a superficial AY-27 rat bladder tumor (D2), and a muscle-invasive AY-27 rat bladder tumor (D3).
A syngeneic orthotopic rat bladder cancer model.

[2] = Conversion of sinigrin to AITC in vivo; details: rat
[3] = test system: human bladder cancer UM-UC-3 cells; assay: MTT cell growth and proliferation assay, UM-UC-3 cells; type: cell-based; details: sinigrin by itself, without myrosinase; result not shown
Experimental: (§1) FIG. 3. The effect of AITC on cell survival and proliferation. AITC was evaluated at the indicated concentrations in human bladder cancer UM-UC-3 cells, rat bladder cancer AY-27 cells, and normal human bladder epithelial cells (HUC). A. Cell growth inhibition, measured by MTT assay, 72-h AITC treatment. IC50 was calculated from nonlinear regression curve fit. B. Cell cycle arrest (□, subG1; ? , G1; ? , 5; ▪, G2/M), measured by flow cytometry, 24 h AITC treatment. C. Apoptosis induction, measured by an ELISA assay, 24 h AITC treatment. Mean±SE, n=3-6), *P<0.05.
(§2) FIG. 10. The effect of NAC-AITC on cell survival and proliferation. NAC-AITC was evaluated in both UM-UC-3 cells and AY-27 cells. (A) Chemical structures of AITC and NAC-AITC. (B) Cell growth and proliferation, measured by 3-([…])-2,5-diphenyltetrazolium bromide assay, 72 h treatment with AITC or NAC-AITC at indicated concentrations. IC50 was calculated from the non-linear regression curve fit. (C) Apoptosis, measured by an enzyme-linked immunosorbent assay, 24 h NAC-AITC treatment at 15 µM. (D) Cell cycle (open bars, G1; shaded bars, S; closed bars, G2/M), measured by flow cytometry, 24 h NAC-AITC treatment at 15 μM. *P<, 0.005, compared with control.
(§3) Assays for cell proliferation, cell cycle arrest and apoptosis. To determine the antiproliferative activity of NAC-AITC, AY-27 cells were grown in 96-well microtiter plates ([…] with 0.15 ml medium per well) for 24 h and then grown for 72 h in fresh medium (0.2 ml/well) containing a series of concentrations of NAC-AITC or solvent. Cell growth was measured at the end of treatment using the 3-([…])-2,5-diphenyltetrazolium bromide assay, from which the half maximal inhibitory concentration (IC50) of NAC-AITC was calculated. AITC was also evaluated for comparison.

[4] = test system: rat bladder cancer AY-27 cells; assay: MTT cell growth and proliferation assay, AY-27 cells; type: cell-based; details: sinigrin by itself, without myrosinase; result not shown
Experimental: as §1, §2, §3

[5] = reference [18]; cited from earlier work
[6] = test system: cyclooxygenase-2 (Cox-2) in human bladder cancer HT1376 cells; assay: Western blot analysis of Cox-2 in HT1376 cells; type: cell-based; details: 24 h, cells overexpressing Cox-2
Experimental: FIG. 5. The effects of AITC and SF on cyclooxygenase-2 (Cox-2) expression in human bladder cancer cells. Human bladder cancer HT1376 cells that over express Cox-2 were treated with AITC or SF at the indicated concentrations for 24 h and then harvested for Western blot analysis of Cox-2. GAPDH is used as a loading control.

[7] = test system: α-tubulin, β-tubulin, γ-tubulin, caspase-9, caspase-3, VEGF in UM-UC-3 cells; assay: Western blotting in UM-UC-3 cells (tubulins, caspases, VEGF); type: cell-based, human; details: co-treatment, 20 microM Z-LEHD-FMK
Experimental: (§4) FIG. 4. Effect of AITC on mitosis, tubulin expression and apoptosis in human bladder cancer UM-UC-3 cells. Cells were treated with vehicle or AITC for 24 h (each numerical value is mean±SD). A. Flow cytometry analysis for cell cycle arrest. B. Wright-Giemsa staining for counting mitotic figures. Arrows point to cells in mitosis or mitotic catastrophe. C. Immunofluorescent staining of microtubules (green color) and DNA staining with DAPI (blue color). D. Western blotting of tubulins (GAPDH as a loading control). E. Loss of mitochondrial transmembrane potential (Δψm) measured by flow cytometry. F. Western blotting of caspase-9 and caspase-3 (GAPDH as a loading control). G. Apoptotic cells (TUNEL cells) measured by flow cytometry. Cells in F and G were co-treated with or without 20 microM Z-LEHD-FMK (a caspase-9 inhibitor).
FIG. 8. Inhibition of bladder cancer development by MSP-1. Female F344 rats were inoculated with AY-27 cells intravesically via a urethra catheter to initiate development of orthotopic bladder cancer. Oral administration of MSP-1 of vehicle (water) once daily was started 1 day after cancer cell inoculation and ended 3 weeks later. The number of rats per group varied from 11-29. A. Initial (□) and final (▪) body weights. B. Tumor weight was calculated by subtracting the average normal bladder weight from tumor-bearing bladder weight. *P<0.05. Each value in A and B is mean±SEM. C. Percentage of bladder where the tumor invaded the muscle tissue. D. The effects of MSP-1 on selected anticancer targets in UM-UC-3 cells (in vitro), AY-27 cells (in vitro) and AY-27 tumors (in vivo). The cells were treated with MSP-1 at the sinigrin concentrations of 13 and 26 microM for 24 h. The bladder tumors were removed from rats treated with MSP-1 at the sinigrin doses of 9 or 90 micromols/kg once daily for 3 weeks, started 1 day after cancer cell inoculation. Cell lysates and tumor homogenates were analyzed by Western blotting, using GAPDH as a loading control.
Western blot analysis. […]

UM-UC-3 cells = assay: Mitochondria-mediated apoptosis in UM-UC-3 cells (Δψm, cytochrome c, TUNEL); type: cell-based, human; details: co-treatment, 20 microM Z-LEHD-FMK
Experimental: as §4

C=CCC(=NOS(=O)(=O)O)S[C@@H]1O[C@H](CO)[C@@H](O)[C@H](O)[C@H]1O (stereo in doubt) [sinigrin, reference compound]
efficacy in the orthotopic rat bladder cancer model [1]: ineffective
sinigrin converted to AITC in vivo [2]: 3-5%
activity in vitro on bladder cancer cell line [3]: inactive
activity in vitro on bladder cancer cell line [4]: inactive

C[S+]([O-])CCCCN=C=S (centres unmarked) [SF, sulforaphane]
delivery to bladder tissue [5]: selectively delivered to bladder tissue through urinary excretion
effect on Cox-2 expression [6]: strongly down regulates

Cbz-LEHD-CH2F [reference compound]
effect on AITC-caused activation of the caspases [7]: completely blocked
effect on AITC-caused formation of TUNEL-positive cells (UM-UC-3 cells): completely blocked
